Results as given in ChEMBL document CHEMBL1201862, “PubChem BioAssay data set” (2004).
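96-well plates; 48 h exposure; 5 concentrations. Endpoints by linear interpolation between flanking doses. Not reached: highest tested concentration assigned. Here, GI50 denotes the concentration required for 50% inhibition of growth.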 The source made the active and inactive calls. Cut-off read from the data, not from the text of the source: active = GI50 up to about 1.1 µM and inactive = higher.

Experiments:
Test in all cases: NCI-60 cell line screen, 48 h
OVCAR-3 = test system: OVCAR-3
SNB-19 = test system: SNB-19
BT-549 = test system: BT-549
OVCAR-8 = test system: OVCAR-8
DU-145 = test system: DU-145
K562 = test system: K562
LOX IMVI = test system: LOX IMVI
NCI-H226 = test system: NCI-H226
MDA-MB-231 = test system: MDA-MB-231
SK-MEL-5 = test system: SK-MEL-5
HL-60 = test system: HL-60
NCI-H23 = test system: NCI-H23
SW-620 = test system: SW-620
COLO 205 = test system: COLO 205
RPMI-8226 = test system: RPMI-8226
HCT-116 = test system: HCT-116
MOLT-4 = test system: MOLT-4
HOP-92 = test system: HOP-92
SNB-75 = test system: SNB-75
UACC-62 = test system: UACC-62

Measured: GI50

O=c1cc(NNCc2ccccc2)[nH]c(=O)[nH]1
inactive: OVCAR-3 > 100 µM | SNB-19 > 100 µM | BT-549 > 100 µM | OVCAR-8 > 100 µM | DU-145 > 100 µM | K562 > 100 µM | LOX IMVI > 100 µM | NCI-H226 > 100 µM | MDA-MB-231 > 100 µM | SK-MEL-5 > 100 µM | HL-60 > 100 µM | NCI-H23 > 100 µM | SW-620 > 100 µM | COLO 205 > 100 µM | RPMI-8226 > 100 µM | HCT-116 > 10 µM | MOLT-4 69.2 µM | HOP-92 4.68 µM

CCn1c2ccccc2c2ccc(C3C4C(=O)N(c5cccc6ccccc56)C(=O)C4ON3C(C(N)=O)c3ccccc3)cc21 (stereo unspecified)
inactive: OVCAR-3 13.7 µM | SNB-19 > 25 µM | BT-549 14.9 µM | OVCAR-8 > 25 µM | DU-145 14.8 µM | SNB-75 > 25 µM | K562 14.8 µM | LOX IMVI 13.2 µM | NCI-H226 2.76 µM | MDA-MB-231 > 25 µM | UACC-62 9.04 µM | SK-MEL-5 14.2 µM | HL-60 17.7 µM | NCI-H23 24 µM | SW-620 12.8 µM | COLO 205 10.1 µM | HCT-116 13 µM | MOLT-4 7.53 µM | HOP-92 > 25 µM

O=C(c1cc(Cl)cc(Cl)c1)N(C(=S)OC12CC3CC(CC(C3)C1)C2)c1ccccc1
inactive: OVCAR-3 45.3 µM | SNB-19 45.6 µM | BT-549 50.2 µM | OVCAR-8 41.7 µM | DU-145 75.2 µM | SNB-75 61 µM | NCI-H226 35.5 µM | MDA-MB-231 38.6 µM | UACC-62 32.6 µM | SK-MEL-5 28.3 µM | HL-60 24.4 µM | NCI-H23 36.1 µM | SW-620 39.5 µM | COLO 205 18.6 µM | HCT-116 28.1 µM | HOP-92 29 µM

COc1cc(-c2ccccc2N)c2cccnc2c1OC
inactive: OVCAR-3 4.38 µM | SNB-19 4.75 µM | BT-549 9.14 µM | DU-145 2.89 µM | K562 4.78 µM | LOX IMVI 3.4 µM | NCI-H226 11.6 µM | MDA-MB-231 6.22 µM | UACC-62 11.7 µM | SK-MEL-5 13 µM | HL-60 3.98 µM | NCI-H23 4.94 µM | SW-620 2.92 µM | COLO 205 6.38 µM | RPMI-8226 3.4 µM | HCT-116 1.36 µM | MOLT-4 1.44 µM | HOP-92 9.53 µM

Cc1ccc2c(c1C)C(=O)C1(C2)Cc2ccc3c(c2C1=O)CCC3 (stereo unspecified)
inactive: OVCAR-3 > 100 µM | SNB-19 > 100 µM | BT-549 > 100 µM | OVCAR-8 > 100 µM | DU-145 > 100 µM | SNB-75 > 100 µM | K562 > 100 µM | NCI-H226 > 100 µM | MDA-MB-231 > 100 µM | UACC-62 > 100 µM | SK-MEL-5 > 100 µM | HL-60 > 100 µM | NCI-H23 > 100 µM | SW-620 > 100 µM | COLO 205 > 100 µM | RPMI-8226 > 100 µM | HCT-116 > 100 µM | MOLT-4 > 100 µM | HOP-92 > 100 µM

O=C(c1ccccc1)N1CCN(C(=S)NC2CCCCC2)C1=S
inactive: OVCAR-3 15.6 µM | BT-549 17.1 µM | OVCAR-8 17 µM | DU-145 21.8 µM | SNB-75 11.1 µM | K562 33.3 µM | LOX IMVI 16 µM | NCI-H226 14.7 µM | MDA-MB-231 7.03 µM | UACC-62 19.3 µM | SK-MEL-5 17.4 µM | HL-60 21.9 µM | NCI-H23 15.9 µM | SW-620 21.6 µM | COLO 205 18.5 µM | HCT-116 16.1 µM | MOLT-4 17.5 µM | HOP-92 15.5 µM

C[C@H]1CCCCC[C@@H]2CC(=O)CC2C(=O)CCC(=O)O1 (stereo partly specified)
inactive: OVCAR-3 > 100 µM | SNB-19 > 100 µM | BT-549 > 100 µM | OVCAR-8 > 100 µM | DU-145 > 100 µM | SNB-75 9.02 µM | K562 > 100 µM | NCI-H226 16.7 µM | MDA-MB-231 > 100 µM | UACC-62 6.68 µM | SK-MEL-5 > 100 µM | HL-60 > 100 µM | NCI-H23 > 100 µM | SW-620 > 100 µM | COLO 205 > 100 µM | RPMI-8226 > 100 µM | HCT-116 > 100 µM | MOLT-4 > 100 µM | HOP-92 > 100 µM

C/C(=C(/C)c1ccc(O)cc1)c1ccc(O)cc1 [DIMETHYLSTILBESTROL]
inactive: OVCAR-3 46.6 µM | SNB-19 > 100 µM | BT-549 12.6 µM | OVCAR-8 36.1 µM | DU-145 87.3 µM | SNB-75 39.2 µM | K562 46 µM | NCI-H226 36.7 µM | MDA-MB-231 > 100 µM | UACC-62 23.7 µM | SK-MEL-5 19.5 µM | HL-60 41.4 µM | NCI-H23 43.6 µM | SW-620 > 100 µM | COLO 205 > 100 µM | RPMI-8226 34.9 µM | HCT-116 83.2 µM | MOLT-4 45.5 µM | HOP-92 27.4 µM
